“Also recorded” adds a separate entry of the source. Where no end group is shown, it is not given here.

The results in this text go back to PMC7055314, “Ratiometric population sensing by a pump-probe signaling system in Bacillus subtilis” (Nature Communications, 2020).

Data set [1] concerns reporter cells BIB625 (RapA-Spo0F FRET). The data set can be described thus: Bioassay of supernatants: PhrA depletion from medium measured with fresh reporter cells. It is filed as cell-based, Bacillus subtilis. Particulars: 10 nM PhrA, within a few minutes. Here is the method:
Induction of FRET reporters: Reporter cells were inoculated from a single colony into 5 ml of LB medium with antibiotics and incubated on a rotary shaker (Infors HT Multitron) at 180 rpm and 37 °C for 7 h. Cells were resuspended at OD600 nm = 0.003 in 5 ml of S7_50 medium and incubated for 16 h overnight. Expression of the fusion proteins was induced by resuspending the reporter cells at an OD600 nm =0.04 in 10 ml of fresh S7_50 supplemented with 100 µM IPTG in a 100-ml flask. When applicable, protein expression from a xylose-inducible promoter was induced by adding xylose at a final concentration of 1% (w/v). Cells were grown to a final OD600 nm ~1.6.
Bioassay and supernatant analysis: The supernatants were collected after centrifugation of stimulated cells. […] The supernatants were then filtered through a 0.2-µm PES membrane, and analyzed as described above with the following modification. To increase the sensitivity of the bioassay, the volume of analyzed supernatant and the incubation time were increased to VS = 1950 µl and tB = 20 min + 1 min, respectively. […]
The FRET efficiency was determined using the formula:5 FRET=CFPpost−CFPpre/CFPpost⋅100%, where CFPpre and CFPpost denote the emission levels before and after acceptor photobleaching, respectively. […] CFPpre is then evaluated at the end of the bleaching period by extrapolating the linear fit accordingly (see Fig. 2b). […]

The nature of data set [2]: PhrA stability in cell-free supernatant (Supplementary Fig. 5B). In kind it is in vitro ADME. Here is the method: Bioassay and supernatant analysis: The supernatants were collected after centrifugation of stimulated cells. Aliquots (VS = 450 µl) of the cell-free supernatants were mixed with 50 µl of a 10× suspension of fresh unstimulated reporter cells, for tB = 5 min + 1 min (time for incubation plus centrifugation) at room temperature and then processed as described above. To detect extracellular PhrA in S7_50 cultures, wild-type cells (BIB224) were grown for 5 h to an OD600 nn ~ 1.6 and pelleted by centrifugation. The supernatants were then filtered through a 0.2-µm PES membrane, and analyzed as described above with the following modification. To increase the sensitivity of the bioassay, the volume of analyzed supernatant and the incubation time were increased to VS = 1950 µl and tB = 20 min + 1 min, respectively.

For a further data set, the target named is T1, CFP-RapA (Bacillus subtilis 168, UniProt Q00828 1-378).
T1 construct: RapA, Rap-family RRNPP-type receptor (response regulator aspartate phosphatase A) of Bacillus subtilis; rapA amplified from B. subtilis 168 genomic DNA; ecfp(Bs) is joined to the N-terminus of RapA by a GSGGV linker; also called RapA receptor; RapA-CFP; source: B. subtilis reporter strain BIB625 (ΔrapA-phrA Δspo0F), IPTG-induced from the amyE locus, in living cells; not shown: eCFP(Bs), …
T1 sequence (looked up): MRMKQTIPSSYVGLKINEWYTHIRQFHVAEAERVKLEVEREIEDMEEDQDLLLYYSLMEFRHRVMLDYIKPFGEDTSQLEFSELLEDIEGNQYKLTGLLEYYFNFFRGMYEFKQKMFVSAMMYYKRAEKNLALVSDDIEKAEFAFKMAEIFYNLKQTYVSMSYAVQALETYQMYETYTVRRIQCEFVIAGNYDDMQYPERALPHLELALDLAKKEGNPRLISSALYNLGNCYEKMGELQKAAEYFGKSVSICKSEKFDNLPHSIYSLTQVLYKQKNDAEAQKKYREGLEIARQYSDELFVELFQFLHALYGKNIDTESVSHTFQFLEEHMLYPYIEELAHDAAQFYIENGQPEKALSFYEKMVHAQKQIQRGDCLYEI
Kind of data set: FRET or BRET; loss of CFP-RapA/Spo0F-YFP FRET in B. subtilis reporter cells against PhrA; EC50 is the intracellular PhrA concentration of the half-maximal response, inferred by fitting all data of Figs. 4 and 5 to the pump-probe model (Hill function). Particulars: one partner purified.

For ARNQT [PhrA], the “extracellular PhrA level after stimulation” value in data set [1] is recorded as “below the detection limit of the bioassay”. Further, the “time for which bioassay FRET remained unchanged (stability)” value in data set [2] (10 nM PhrA in cell-free supernatant, room temperature, bioassay read-out, ne = 3) is given as “at least 8 h”. Also, the “bioassay FRET during incubation in cell-free supernatant” value in data set [2] (10 nM PhrA in cell-free supernatant, room temperature, up to at least 8 h, ne = 3) was ~ 7%. For the same molecule, the “extracellular stability” value in data set [2] (10 nM PhrA, cell-free supernatant) is on record as “stable in cell-free supernatants; also recorded: stable for hours”.

B1: PhrA (peptide)
peptide: ARNQT
notes: PhrA, the mature linear pentapeptide derived from the phrA gene product of Bacillus subtilis; also called PhrA pentapeptide; ARNQT; source: synthetic peptide (Peptides and Elephant, purity >95%)
In turn, B1 had an EC50 in the data set with CFP-RapA of 38 µM.
